Active and inactive are the calls of the source. The calls are words filed in the database; no cut-off is given here.
Key:
Solanum lycopersicum [1] = assay: (§1) Induction of systemic acquired resistance activity in Botrytis cinerea infected Solanum lycopersicum (tomato) leaves assessed as increase in guaiacol peroxidase activity at 0.3 mM applied as spray 24 hr prior to inoculation measured after 6 to 48 hr by colorimetric assay relative to untreated infected control; type: functional, organism-based
Solanum lycopersicum [2] = assay: as §1, with “untreated” for “untreated infected”; type: functional, organism-based
Solanum lycopersicum [3] = assay: Induction of systemic acquired resistance activity in Solanum lycopersicum (tomato) leaves assessed as decrease in hydroxyl radical generation at 0.3 mM applied as spray 24 hr prior to inoculation measured after 2 to 48 hr by TBARS assay relative to untreated control; type: functional, organism-based
Solanum lycopersicum [4] = assay: Induction of systemic acquired resistance activity in Botrytis cinerea infected Solanum lycopersicum (tomato) leaves assessed as increase in H2O2 level at 0.3 mM applied as spray 24 hr prior to inoculation measured after 2 to 6 hr relative to untreated infected control; type: functional, organism-based
Solanum lycopersicum [5] = assay: Induction of systemic acquired resistance activity in Botrytis cinerea infected Solanum lycopersicum (tomato) leaves assessed as induction of superoxide anion radical generation at 0.3 mM applied as spray 24 hr prior to inoculation measured after 2 to 6 hr by nitro blue tetrazolium reduction assay relative to control; type: functional, organism-based
Solanum lycopersicum [6] = assay: Induction of systemic acquired resistance activity in Botrytis cinerea infected Solanum lycopersicum (tomato) leaves assessed as increase in H2O2 level at 0.3 mM applied as spray 24 hr prior to inoculation measured after 2 to 6 hr relative to untreated control; type: functional, organism-based
Solanum lycopersicum [7] = assay: Phytotoxicity in Solanum lycopersicum (tomato) at 0.3 mM applied as spray; type: organism-based; settings: in vivo, other, 300 µM
Solanum lycopersicum [8] = assay: Induction of systemic acquired resistance activity in Botrytis cinerea infected Solanum lycopersicum (tomato) leaves assessed as visible lesions on leaf surface at 0.3 mM applied as spray 24 hr prior to inoculation measured after 14 days (reference value: 66%); type: functional

In the case of `CSC(=O)c1cccc2nnsc12` [ACIBENZOLAR-S-METHYL], the Activity (Solanum lycopersicum [1]) is reported as “Active”, the Activity (Solanum lycopersicum [2]) is reported as “Active” and the Activity (Solanum lycopersicum [3]) is reported as “Active”. The Activity (Solanum lycopersicum [4]) was “Active”, the Activity (Solanum lycopersicum [5]) was “Active” and the Activity (Solanum lycopersicum [6]) was “Active”. For the same compound, the Activity (Solanum lycopersicum [7]) was “Non-toxic” and the Activity (Solanum lycopersicum [8]) was 27%.

— ChEMBL document CHEMBL3044694, “Induction of disease resistance by acibenzolar-S-methyl and o-hydroxyethylorutin against Botrytis cinerea in tomato plants” (Crop Prot, 2006)
